Laboratory results published in patent US11905537B2, “Bifunction chemical epigenetic modifiers and methods of use” (The University of North Carolina at Chapel Hill, priority 2017, dated 2024).
Where “and” joins values, the source holds several entries; their conditions need not be identical. Equal entries are not always repeated.

Legend:
Type in all cases: cell-based, human
[1] = tested on: BFP reporter gene downstream of a tre3g promoter; assay: BFP reporter activation in HEK 293T cells with dCas9 systems, flow cytometry
From the text: To test for changes in gene expression, human embryonic kidney (HEK) 293T cells were transfected with a BFP reporter gene downstream of a tre3g promoter and performed flow cytometry on at least 100,000 cells after co-expressing the gRNA and dCas9 machinery(Ma, D. et al. Nat. Commun. 7, 13056 (2016)). As a benchmark control for gene activation, a dCas9-p300 fusion protein known to increase expression was used (Hilton, I. B. et al., Nat. Biotechnol. 33, 510-517 (2015)). Using a gRNA that targets the tre3g promoter at six interspaced sites, the dCas9-p300 increased BFP expression 14-fold compared to the non-targeting (NT) control gRNA (FIG. 21A, p<0.05). Next, activating the reporter gene with a plasmid expressing dCas9 (N-terminus)-FKBPx2 (C-terminus) was tested using three predicted activating bifunctional CEMs.
Cell culture: Low passage (p30-40) HEK 293T cells were cultured with high-glucose DMEM (Corning, 10-013-CV) supplemented with 10% FBS serum (Atlantic Biologicals, S11550), 10 mM HEPES (Corning, 25-060-Cl), NEAA (Gibco, 11140-050), Pen/Strep, and 55 μM 2-Mercaptoethanol. Cells were passaged every 2-5 days and maintained at 10-90% confluency in an incubator at 37° C. and 5% CO2.
Cell Transfection: For FIG. 21, HEK 293T cells were split into 12-well plates with 100,000 cells per well. The next day, PEI (polyethlenimine, Polysciences #23966-1) transfection was done with 1 μg of DNA, 3 μL of PEI, and 100 μL of Optimem (Gibco, 31985070). For FIGS. 21A, 21B, 22, and 23 we transfected with 0.1 μg BFP reporter; 0.7 μg dCas9-X; 0.2 μg gRNA. For FIG. 19C, FIG. 19D, FIG. 24, and FIG. 24 we transfected with 0.1 μg BFP reporter; 0.5 μg dCas9-X; 0.2 μg scFv-FKBP or ms2-FKBP; 0.2 μg gRNA. Media was change 16 hours after transfection with fresh media, with or without bifunctional CEMa addition. After 48 hours of bifunctional CEMa exposure, cells were isolated for flow cytometry analysis. For FIG. 23, HEK 293T cells were split into 6-well plates with 200,000 cells per well. The next day, PIE transfection was done with 3 μg of DNA, 9 μL of PEI, and 200 μL of Optimem. For FIGS. 23A-C and 26, 3 μg of gRNA was added in equal ratio (if applicable). Media was change 16 hours after transfection with fresh media, with or without bifunctional CEMa addition. After 48 hours of bifunctional CEMa exposure, cells were isolate for RNA extraction.
Flow cytometry: Flow cytometry was performed with the Attune Nxt as previously described (Chiarella, A. M. et al. Biochemistry 57, 2756-2761 (2018)). The data presented represents three separate transfections and significance was determined with the student's t-test.

MYOD1 = assay: Endogenous MYOD1 activation in HEK 293T cells, qRT-PCR; settings: 200 nM, 48 hours
From the text: (§1) Next, the plasmid-optimized dCas9-CEMa system was adapted to target endogenous mammalian genes. Because an endogenous gene was being targeted rather than hundreds of transiently expressing reporter plasmids, the dCas9 machinery (dCas9-p300, dCas9-FKBPx2 and/or MCP-FKBP) was chosen to transfect HEK 293T cells. After the cells were stably selected for integration of the dCas9- and MCP-expressing plasmids, the gRNAs that were designed to target endogenous genes were transfected. To determine the time point at which to observe more efficient dCas9 regulation by this method, cells expressing dCas9-p300 were transfected with gRNAs for myogenic differentiation (MYOD1), the RNA was extracted and qRT-PCR was performed after 24, 48 and 72 hours post transfection. […]
(§2) RNA extraction: For FIGS. 23 and 26, cells from the 6-well plates were isolated. […] RNA extraction was performed with an RNeasy Plus Mini Kit (Qiagen, 74134) and the relative enrichment of mRNA was quantified with the RNA-to-CTr 1-step kit (Thermo Fisher Scientific, 4389986). […]

CXCR4 = assay: Endogenous CXCR4 activation in HEK 293T cells, qRT-PCR; settings: 48 hours
From the text: as §1, §2

ASCL1 = assay: Endogenous ASCL1 activation in HEK 293T cells, qRT-PCR; settings: 48 hours
From the text: as §1, §2

HEK 293T cells = assay: Cell health by cell density and morphology in the dose curve; settings: concentrations of 500 nM and above, data not shown
Procedure: The dCas9 “SunTag” system was adapted to be compatible with the bifunctional CEMa technology(Tanenbaum, M. E. et al. Cell 159, 635-646 (2014); (Chavez, A. et al. Nat. Methods 13, 563-567 (2016)). Using the improved dCas9-CEMa system (dCas9-FKBPx2, ms2-FKBP, tre3g ×6 gRNA, BFP reporter), the effects of a global epigenetic inhibitor in combination with a gene-specific approach was tested. After the cells were transfected, they were treated with 200 nM of CEM87 and 2.5 μM of Entinostat. BFP expression increased 34-fold compared to unreated cells as measured by flow cytometry. More specifically, A dCas9-SunTagx10 plasmid was used that expresses an array of 10 yeast-specific GCN4 (gene control protein 4) peptides from the C-terminus of the dCas9, and co-transfected with a single chain variable fragment (scFv), (made to be GCN4-specific) fused to FKBP. Theoretically, as many as 10 FKBP molecules per dCas9 would be recruited to the gene of interest, increasing the bifunctional CEMa recruitment power. With the adapted SunTag method and the tre3g ×6 gRNA, 48 hours of 200 nM CEM87 exposure increased expression 16-fold compared to untreated cells (FIG. 24, p<0.001). […] With the improved dCas9 system and the most efficient bifunctional CEMa, CEM87, a dose-curve was performed and the ideal concentration for maximum expression was determined to be 200 nM (FIG. 21D). […]

[2] = dCas9-FKBPx2 (FIG. 21B legend: dCas9-FKBPx1), 200 nM, 48 hours, vs untreated cells
[3] = dCas9-SunTagx10 with scFv-FKBP, tre3g ×6 gRNA, 200 nM, 48 hours, vs untreated

cell health (cell density and morphology) (HEK 293T cells)	Compound	increase in BFP expression [1, 2]	increase in BFP expression ([1]; dCas9-FKBPx2, ms2-FKBP, tre3g ×6 gRNA, equivalent concentration, vs cells expressing NT gRNA) [fold]	increase in BFP expression [1, 3] [fold]	increase in BFP expression in combination with HDACi ([1]; 200 nM CEM87 plus 2.5 μM entinostat, dCas9-FKBPx2, ms2-FKBP, vs untreated cells) [fold]	increase in BFP expression ([1]; dCas9-FKBPx2, 6×-tre3g gRNA, 200 nM, 48 hours, vs untreated) [fold]	increase in BFP expression ([1]; dCas9-FKBPx2, ms2-FKBP, tre3g ×6 gRNA, 200 nM, vs untreated cells) [fold]	activation of BFP expression ([1]; dCas9-FKBPx2, multiplex gRNA, 200 nM, 48 hours, vs untreated) [fold]	increase in BFP expression ([1]; dCas9-FKBPx2, single site gRNA in gene body, 200 nM, 48 hours, vs untreated) [fold]	effect on BFP expression with dCas9-HA ([1]; dCas9-HA (no FKBP recruitment site), 6×-tre3g gRNA, 200 nM, 48 hours)	activation of BFP expression ([1]; dose curve, 10 nM, dCas9-FKBPx2, ms2-FKBP) [fold]	activation of BFP expression ([1]; dose curve, 50 nM, dCas9-FKBPx2, ms2-FKBP) [fold]	ideal concentration for maximum expression ([1]; dose curve, dCas9-FKBPx2, ms2-FKBP) [nM]	MYOD1 expression change with NT gRNAs (MYOD1; NT gRNA control cells)	increase in MYOD1 mRNA levels (MYOD1; dCas9-FKBPx2 and ms2-FKBP, MYOD1 gRNAs, vs untreated, normalized to Gapdh) [fold]	change in CXCR4 expression with NT gRNA (CXCR4; NT gRNA control cells)	increase in CXCR4 expression (CXCR4; dCas9-FKBPx2 and ms2-FKBP, CXCR4 gRNAs, vs untreated) [fold]	increase in ASCL1 in NT samples (ASCL1; NT gRNA samples)	increase in ASCL1 mRNA levels (ASCL1; dCas9-FKBPx2 and ms2-FKBP, ASCL1 gRNAs, vs untreated) [fold]
	CO[C@H]1C[C@@H](C)C/C(C)=C/[C@@H](CCCSCCC(=O)NCCOCCOCCOCCn2cc(COc3ccc(CCc4nc5cc(-c6c(C)noc6C)ccc5n4CCN4CCOCC4)cc3F)nn2)C(=O)C[C@H](O)[C@@H](C)[C@@H](/C(C)=C/[C@@H]2CC[C@@H](O)[C@H](OC)C2)OC(=O)[C@@H]2CCCCN2C(=O)C(=O)[C@]2(O)O[C@H]1[C@@H](OC)C[C@H]2C [CEM114]	1.6 fold	6	2															
appeared less healthy	COc1ccc2c(c1)C(c1ccc(Cl)cc1)=N[C@@H](CC(=O)NCc1cn(CCOCCOCCOCCNC(=O)CCSCCC[C@@H]3/C=C(\C)C[C@H](C)C[C@H](OC)[C@H]4O[C@@](O)(C(=O)C(=O)N5CCCC[C@H]5C(=O)O[C@H](/C(C)=C/[C@@H]5CC[C@@H](O)[C@H](OC)C5)[C@H](C)[C@@H](O)CC3=O)[C@H](C)C[C@@H]4OC)nn1)c1nnc(C)n1-2 [CEM87]	7.5 fold and ~7 fold		16	34	5	18	4	2	did not significantly affect the BFP expression	2	8	200	no significant changes in expression	13	less than 2 fold	10	less than 4 fold	22
